Source: ChEMBL document CHEMBL1144588, “Synthesis and SAR of 3,5-diamino-piperidine derivatives: novel antibacterial translation inhibitors as aminoglycoside mimetics” (Bioorg Med Chem Lett, 2007)
Values after ≈ are worked out from the molar mass of the structure shown.

Experiments:
[1] = test system: Pseudomonas aeruginosa; experiment: Antimicrobial activity against Pseudomonas aeruginosa; type: functional
[2] = test system: Staphylococcus aureus; experiment: Antibacterial activity against Staphylococcus aureus ATCC 25923; type: functional
[3] = test system: Escherichia coli; experiment: Inhibition of protein synthesis in Escherichia coli by coupled transcription-translation assay; type: functional, organism-based

SMILES	MIC90 [1] [µg/mL]	MIC [2] [µg/mL]	IC50 [3] [µM]
N[C@@H]1C[C@H](N)CN(c2nc(Nc3ccc(NC(=O)c4ccc(Cl)cc4)c(O)c3)nc(N3C[C@H](N)C[C@H](N)C3)n2)C1	8 (≈ 14.1 µM)	16 (≈ 28.2 µM)	–
N[C@@H]1C[C@H](N)CN(c2nc(Nc3ccc(Cl)c(Cl)c3)nc(N3C[C@H](N)C[C@H](N)C3)n2)C1	–	–	10
NC1CCCN(c2nc(Nc3ccc(Cl)c(Cl)c3)nc(N3CCCC(N)C3)n2)C1 (centres undefined)	–	–	> 1000
N[C@@H]1C[C@H](N)CN(c2ncnc(Nc3ccc(NC(=O)c4ccc5ccccc5c4O)cc3)n2)C1	–	–	16
NCCN(CCN)c1nc(Nc2ccc(NC(=O)c3ccc(Cl)cc3)c(O)c2)nc(N2C[C@H](N)C[C@H](N)C2)n1	–	32 (≈ 57.5 µM)	18
N[C@@H]1C[C@H](N)CN(c2nc(Nc3ccc(NC(=O)c4ccc5ccccc5c4O)cc3)nc(N3C[C@@H](N)C[C@H]3CO)n2)C1	–	8 (≈ 13.7 µM)	19
NC1CN(c2nc(Nc3ccc(NC(=O)c4ccc(Cl)cc4)c(O)c3)nc(N3C[C@H](N)C[C@H](N)C3)n2)C1	–	–	14
NC(=O)C1CCN(c2nc(Nc3ccc(NC(=O)c4ccc(Cl)cc4)c(O)c3)nc(N3C[C@H](N)C[C@H](N)C3)n2)CC1	–	–	> 1000
Cc1ccc(S(=O)(=O)N(Cc2ccccc2)c2ccc(Nc3nc(N4C[C@H](N)C[C@H](N)C4)nc(N4C[C@@H](N)[C@@H](N)C4)n3)cc2O)cc1	–	16 (≈ 24.2 µM)	36
NC[C@H]1[C@@H](O)CCN1c1nc(Nc2ccc(NC(=O)c3ccc4ccccc4c3O)cc2)nc(N2C[C@H](N)C[C@H](N)C2)n1	–	16 (≈ 27.4 µM)	10
N[C@@H]1C[C@H](N)CN(c2nc(Nc3ccc(NC(=O)c4ccc5ccccc5c4O)cc3)nc(N3CCCC(O)C3)n2)C1 (some centres undefined)	–	16 (≈ 28.1 µM)	310
Cc1ccc(S(=O)(=O)N(Cc2ccccc2)c2ccc(Nc3nc(N4CCC(C(N)=O)CC4)nc(N4C[C@H](N)C[C@H](N)C4)n3)cc2O)cc1	–	–	> 1000
NC[C@H]1[C@@H](O)CCN1c1nc(Nc2ccc(NC(=O)c3ccc(Cl)cc3)c(O)c2)nc(N2C[C@H](N)C[C@H](N)C2)n1	–	32 (≈ 56.2 µM)	19
N[C@@H]1C[C@H](N)CN(c2nc(Nc3ccc(NC(=O)c4ccc(Cl)cc4)c(O)c3)nc(N3CCCC(O)C3)n2)C1 (some centres undefined)	–	32 (≈ 57.8 µM)	40
Cc1ccc(S(=O)(=O)N(Cc2ccccc2)c2ccc(Nc3nc(N4CCCC(O)C4)nc(N4C[C@H](N)C[C@H](N)C4)n3)cc2O)cc1 (some centres undefined)	–	8 (≈ 12.1 µM)	44
NC[C@@H]1CN(c2nc(Nc3ccc(NC(=O)c4ccc5ccccc5c4O)cc3)nc(N3C[C@H](N)C[C@H](N)C3)n2)CC[C@@H]1O	–	16 (≈ 26.7 µM)	21
Cc1ccc(S(=O)(=O)N(Cc2ccccc2)c2ccc(Nc3nc(N4C[C@H](N)C[C@H](N)C4)nc(N4CC[C@H](O)[C@H](CN)C4)n3)cc2O)cc1	–	16 (≈ 23.2 µM)	27
Cc1ccc(S(=O)(=O)N(Cc2ccccc2)c2ccc(Nc3nc(N4C[C@H](N)C[C@H](N)C4)nc(N4C[C@@H](O)[C@@H](O)C4)n3)cc2O)cc1	–	32 (≈ 48.4 µM)	43
Cc1ccc(S(=O)(=O)N(Cc2ccccc2)c2ccc(Nc3nc(N4CC(N)C4)nc(N4C[C@H](N)C[C@H](N)C4)n3)cc2O)cc1	–	160 (≈ 254 µM)	11
NCCN(CCN)c1nc(Nc2ccc(NC(=O)c3ccc4ccccc4c3O)cc2)nc(N(CCN)CCN)n1	–	–	7
CN[C@@H]1C[C@H](NC)CN(c2nc(Nc3ccc(Cl)c(Cl)c3)nc(N3C[C@H](NC)C[C@H](NC)C3)n2)C1	–	–	5
N[C@@H]1C[C@H](N)CN(c2nc(Nc3ccc(NC(=O)c4ccc(Cl)cc4)c(O)c3)nc(N3C[C@@H](O)[C@@H](O)C3)n2)C1	–	64 (≈ 115 µM)	77
N[C@@H]1C[C@H](N)CN(c2nc(Nc3ccc(NC(=O)c4ccc5ccccc5c4O)cc3)nc(N3C[C@H](N)C[C@H](N)C3)n2)C1	–	–	7

SMILES	MIC90 [1] [µg/mL]	MIC [2] [µg/mL]	IC50 [3] [µM]
Cc1ccc(S(=O)(=O)N(Cc2ccccc2)c2ccc(Nc3nc(N4C[C@H](N)C[C@H](N)C4)nc(N4C[C@H](N)C[C@H](N)C4)n3)cc2O)cc1	–	8 (≈ 11.9 µM)	3
N[C@@H]1C[C@H](N)CN(c2nc(Nc3ccc(NC(=O)c4ccc(Cl)cc4)c(O)c3)nc(N3C[C@@H](N)C[C@@H](O)C3)n2)C1	–	64 (≈ 112 µM)	40
NC[C@@H]1CN(c2nc(Nc3ccc(NC(=O)c4ccc(Cl)cc4)c(O)c3)nc(N3C[C@H](N)C[C@H](N)C3)n2)CC[C@@H]1O	–	32 (≈ 54.9 µM)	31
N[C@@H]1C[C@H](N)CN(c2nc(Nc3ccc(NC(=O)c4ccc5ccccc5c4O)cc3)nc(N3C[C@@H](N)C[C@@H](O)C3)n2)C1	–	8 (≈ 13.7 µM)	17
Cc1ccc(S(=O)(=O)N(Cc2ccccc2)c2ccc(Nc3nc(N4C[C@H](N)C[C@H](N)C4)nc(N4C[C@@H](N)C[C@@H](O)C4)n3)cc2O)cc1	–	16 (≈ 23.7 µM)	17
N[C@@H]1C[C@H](N)CN(c2nc(Nc3ccc(NC(=O)c4ccc(Cl)cc4)c(O)c3)nc(N3C[C@@H](N)C[C@H]3CO)n2)C1	–	32 (≈ 56.2 µM)	13
N[C@@H]1C[C@H](N)CN(c2nc(Nc3ccc(NC(=O)c4ccc(Cl)cc4)c(O)c3)nc(N3C[C@@H](N)[C@@H](N)C3)n2)C1	–	16 (≈ 28.9 µM)	58
N[C@@H]1C[C@H](O)CN(c2nc(Nc3ccc(NC(=O)c4ccc5ccccc5c4O)cc3)nc(N3C[C@@H](N)C[C@@H](O)C3)n2)C1	–	–	100
NC[C@@H]1C[C@H](N)CN1c1nc(Nc2ccc(NC(=O)c3ccc4ccccc4c3O)cc2)nc(N2C[C@H](N)C[C@H](N)C2)n1	–	2 (≈ 3.43 µM)	10
Cc1ccc(S(=O)(=O)N(Cc2ccccc2)c2ccc(Nc3nc(N(CCN)CCN)nc(N4C[C@H](N)C[C@H](N)C4)n3)cc2O)cc1	–	8 (≈ 12.1 µM)	1
Cc1ccc(S(=O)(=O)N(Cc2ccccc2)c2ccc(Nc3nc(N4C[C@H](N)C[C@H](N)C4)nc(N4C[C@@H](N)C[C@H]4CN)n3)cc2O)cc1	–	2 (≈ 2.97 µM)	13
Cc1ccc(S(=O)(=O)N(Cc2ccccc2)c2ccc(Nc3nc(N4C[C@H](N)C[C@H](N)C4)nc(N4C[C@@H](N)C[C@H]4CO)n3)cc2O)cc1	–	8 (≈ 11.9 µM)	15
NC[C@@H]1C[C@H](N)CN1c1nc(Nc2ccc(NC(=O)c3ccc4ccccc4c3O)cc2)nc(N2C[C@H](N)C[C@@H]2CN)n1	–	–	8
Cc1ccc(S(=O)(=O)N(Cc2ccccc2)c2ccc(Nc3nc(N4C[C@H](N)C[C@H](N)C4)nc(N4CC[C@H](O)[C@@H]4CN)n3)cc2O)cc1	–	8 (≈ 11.9 µM)	21
NC1CCN(c2nc(Nc3ccc(Cl)c(Cl)c3)nc(N3CCC(N)CC3)n2)CC1	–	–	800
CN[C@@H]1C[C@H](NC)CN(c2nc(Nc3ccc(NC(=O)c4ccc5ccccc5c4O)cc3)nc(N3C[C@H](N)C[C@H](N)C3)n2)C1	–	8 (≈ 13.1 µM)	8
NC[C@@H]1C[C@H](CN)CN(c2nc(Nc3ccc(NC(=O)c4ccc5ccccc5c4O)cc3)nc(N3C[C@H](N)C[C@H](N)C3)n2)C1	–	4 (≈ 6.54 µM)	8
NC[C@@H]1C[C@H](CN)CN(c2nc(Nc3ccc(NC(=O)c4ccc(Cl)cc4)c(O)c3)nc(N3C[C@H](N)C[C@H](N)C3)n2)C1	–	16 (≈ 26.8 µM)	11
NC[C@@H]1C[C@H](N)CN1c1nc(Nc2ccc(NC(=O)c3ccc(Cl)cc3)c(O)c2)nc(N2C[C@H](N)C[C@H](N)C2)n1	–	32 (≈ 56.3 µM)	12
N[C@@H]1C[C@H](N)CN(c2nc(Nc3ccc(NC(=O)c4ccc5ccccc5c4O)cc3)nc(N3C[C@@H](O)[C@@H](O)C3)n2)C1	–	32 (≈ 56 µM)	72
Cc1ccc(S(=O)(=O)N(Cc2ccccc2)c2ccc(Nc3nc(N4C[C@H](N)C[C@H](N)C4)nc(N4C[C@H](CN)C[C@H](CN)C4)n3)cc2O)cc1	–	8 (≈ 11.4 µM)	1
NCCN(CCN)c1nc(Nc2ccc(NC(=O)c3ccc4ccccc4c3O)cc2)nc(N2C[C@H](N)C[C@H](N)C2)n1	–	8 (≈ 14 µM)	10
O=C(N[C@H](CO)[C@H](O)c1ccc([N+](=O)[O-])cc1)C(Cl)Cl [CHLORAMPHENICOL]	–	8 (≈ 24.8 µM)	–
